“And” between values parts separate entries of the source, which are not always exact repeats. Equal entries are not always repeated.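 Cells were grown in 96-well plates and exposed to each compound for 48 hours at five concentrations; endpoints were interpolated linearly between bracketing concentrations, or set to the highest concentration if not reached. GI50 marks 50% less growth. The concentration for full growth arrest is given as TGI.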
Key:
Experiment in all cases: NCI tumour cell line growth inhibition, 48 h
HOP-92 NSCLC = test system: HOP-92 NSCLC
HS 578T breast = test system: HS 578T breast
COLO 205 colon = test system: COLO 205 colon
OVCAR-8 ovarian = test system: OVCAR-8 ovarian
OVCAR-5 ovarian = test system: OVCAR-5 ovarian
SK-OV-3 ovarian = test system: SK-OV-3 ovarian
TK-10 renal = test system: TK-10 renal
EKVX NSCLC = test system: EKVX NSCLC
RXF 393 renal = test system: RXF 393 renal
PC-3 prostate = test system: PC-3 prostate

| Structure (SMILES) | TGI (HOP-92 NSCLC) [µM] | TGI (HS 578T breast) [µM] | TGI (COLO 205 colon) | TGI (OVCAR-8 ovarian) [µM] | TGI (OVCAR-5 ovarian) [µM] | TGI (SK-OV-3 ovarian) | TGI (TK-10 renal) | TGI (EKVX NSCLC) | TGI (RXF 393 renal) [µM] | TGI (PC-3 prostate) [µM] | GI50 (SK-OV-3 ovarian) [µM] | GI50 (EKVX NSCLC) [µM] |
| --- | --- | --- | --- | --- | --- | --- | --- | --- | --- | --- | --- | --- |
| C=CCON(C(=O)OC(C)(C)C)C(C)(C)C | > 100 | > 100 | > 100 µM | > 100 | > 100 | > 100 µM | > 100 µM | > 100 µM | > 100 | > 100 |  |  |
| N#Cc1c(NC(=O)C(F)(F)F)sc2c3c(=O)c4ccccc4c(=O)c=3oc3ccccc3c12 | > 53.6 | 14.6 | 32.8 µM | > 56 | 63.3 | 77.2 µM | 74.6 µM | 65.4 µM | > 63.4 | > 62.2 |  |  |
| O=S(=O)(/N=C(\NO)Nc1ccc(Cl)cc1)c1cc(C(F)(F)F)cc(C(F)(F)F)c1 | 30.3 | 60.5 | 35.5 µM | 34.5 | 30.1 | 35.2 µM | 37.6 µM | 30.6 µM | 41 | 31.5 |  |  |
| Cc1ccc(OCC2OC(n3cnc4c(Cl)nc(Nc5cc(Cl)cc(Cl)c5)nc43)CC2Oc2ccc(C)cc2)cc1 (centres undefined) | > 100 | > 100 | > 100 µM | > 100 | > 100 | > 100 µM |  | > 100 µM | > 100 | > 100 |  |  |
| CC(C)(C)OC(=O)N(CCCCNC(=O)C(F)(F)F)CCCNC(=O)C(F)(F)F | > 100 | > 100 | > 100 µM | > 100 | > 100 | > 100 µM | > 100 µM | > 100 µM | > 100 | > 100 |  |  |
| N#Cc1sc2nc3ccccc3n2c1N | > 100 | > 100 | > 100 µM | > 100 | > 100 | > 100 µM | > 100 µM | > 100 µM | 67.6 | > 100 |  |  |
| CCOC(=O)c1c(NC(=O)c2ccccc2)c(C#N)c2n1CCCCC2 | > 100 | > 100 | > 100 µM | > 100 | > 100 | > 100 µM | > 100 µM | > 100 µM | > 100 | > 100 |  |  |
| O=C1CC(O)c2cscc21 (centres undefined) | > 100 | > 100 | > 100 µM | > 100 | > 100 | > 100 µM | > 100 µM | > 100 µM | > 100 | > 100 |  |  |
| Cc1ccc(S[C@@](C=O)(NC(=O)OCc2ccccc2)C(F)(F)F)cc1 | 65.3 | > 100 | 35.5 µM | 43.7 | 54.8 | > 100 µM |  | 54 µM | 31.2 | 54.9 |  |  |
| COc1ccccc1C1c2cc3c(cc2OC2(OC)COC(=O)C12)OCO3 (centres undefined) | > 93.8 | 34.8 | 67.3 µM | > 74.6 | > 100 | 70.1 µM | > 92.4 µM | > 82.3 µM | 44.2 | > 92.7 |  |  |
| Oc1c(N2CCCCC2)cc(-c2cc(N3CCCCC3)c(O)c3ccccc23)c2ccccc12 | 70.4 | 72.6 | 67.6 µM | > 100 | > 100 | > 100 µM | > 100 µM | > 100 µM | 77.7 | > 100 |  |  |
| O=C(O)CCCc1ccc2c(c1)CC1(C2)Cc2cc3c(cc2C1)CCCC3 | 44.2 | > 100 | 38.2 µM | 31.4 | 41.3 | 52.9 µM | > 100 µM | > 100 µM | > 100 | 66.8 |  |  |
| COC1(OC)c2occc2C(=N)c2ccc(=O)oc21 | > 100 | > 100 | > 100 µM |  | > 100 | > 100 µM | > 100 µM | > 100 µM | > 100 | > 100 |  |  |
| C=CCC(CCC(C)=O)(C(=O)OCC)C(=O)OCC | > 100 | > 100 | > 100 µM | > 100 | > 100 | > 100 µM | > 100 µM | > 100 µM | > 100 | > 100 |  |  |
| C[C@@H]1CC[C@]2(C)C3(C)CC[C@]2(OC3=O)[C@@]12CC(c1ccoc1)OC2=O (some centres undefined) | 69.2 | > 100 | 41.4 µM |  | 78.4 | > 100 µM | 96.7 µM | > 100 µM | 46.9 | > 100 |  |  |
| CCCCCCCCCCCCCCCCCCNc1ccn(C2OC(COP(=O)(O)OCC3OC(n4ccc(N)nc4=O)C(O)C3O)C(O)C2O)c(=O)n1 (centres undefined) | > 100 | > 100 | > 100 µM | > 62.2 | > 100 | > 100 µM | > 100 µM | > 100 µM | > 100 | > 100 |  |  |

| Structure (SMILES) | TGI (HOP-92 NSCLC) [µM] | TGI (HS 578T breast) [µM] | TGI (COLO 205 colon) | TGI (OVCAR-8 ovarian) [µM] | TGI (OVCAR-5 ovarian) [µM] | TGI (SK-OV-3 ovarian) | TGI (TK-10 renal) | TGI (EKVX NSCLC) | TGI (RXF 393 renal) [µM] | TGI (PC-3 prostate) [µM] | GI50 (SK-OV-3 ovarian) [µM] | GI50 (EKVX NSCLC) [µM] |
| --- | --- | --- | --- | --- | --- | --- | --- | --- | --- | --- | --- | --- |
| CCN1/C(=C/C#C/C(C)=C\c2sc3ccc(Cl)cc3[n+]2CC)Sc2ccc(Cl)cc21 | 5.52 | 28.8 | 3.21 µM | 17 | 21.3 | 22 µM | > 100 µM | 20.8 µM | 21.3 | 9.11 |  |  |
| Cc1cccc2sc(NC(=O)NS(=O)(=O)n3cnc4ccccc43)nc12 | 38.7 | 52.1 | > 100 µM | 67.1 | 89.4 | > 100 µM | > 100 µM | > 100 µM | 49.1 | 95.3 |  |  |
| COC1(OC)CCc2c(sc3ncnc(Nc4cccc(Br)c4)c23)C1 | > 100 | > 100 | > 100 µM | > 100 | 51.4 | > 100 µM | > 100 µM | 59.2 µM | 62.4 | > 100 |  |  |
| COc1ccc(/C(Nc2ccccc2)=C(\CCl)c2ccccc2)cc1OC | > 100 | > 100 | > 100 µM | > 100 | > 100 | > 100 µM | > 100 µM | > 100 µM | > 100 | > 100 |  |  |
| CC(=O)c1ccc(N=NN2CCCC2)cc1 | > 100 | > 100 | > 100 µM | > 100 | > 100 | > 100 µM | > 100 µM | > 100 µM | > 100 | > 100 |  |  |
| CSC(=O)/C=C1\SS/C(=C\C(=O)SC)S1 | 7.87 | 13.8 | 30.6 µM | 11.7 | 13.7 |  | 15.5 µM | 6.68 µM | 2.8 | 9.32 |  |  |
| COC(=O)[C@@H]1[C@@H]2NC(=S)N[C@@]1(C)Oc1ccccc12 | > 100 | > 100 | > 100 µM | > 100 | > 100 | > 100 µM | > 100 µM | > 100 µM | > 100 | > 100 |  |  |
| C=C1CC[C@@H](CCC2CCC3(OC2)O[C@]2(O)CC[C@@]3(C)OC2(C)C)C(C)(C)[C@H]1C/C=C1\CCOC1=O (some centres undefined) | 66.4 | > 80.7 | 35.3 µM | > 100 | > 100 | > 100 µM | > 93.1 µM | > 71.5 µM | 49.5 | 93.9 |  |  |
| O=C(CCc1cc(O)cc(O)c1)NCCc1cc(O)cc(OCc2ccccc2)c1 | > 100 | > 100 | > 100 µM | > 100 | > 100 | > 100 µM | > 100 µM | > 100 µM | > 100 | > 100 |  |  |
| NCCOc1cccc(C2(N3CCCCC3)CCCCC2)c1 | 95.2 | 38.5 | 26 µM | > 100 | > 100 | > 100 µM | > 100 µM | 62.6 µM | > 100 | > 100 |  |  |
| CC(=O)c1ccc(Nc2c3c(nc4ccccc24)CCCC3)cc1 | > 88.8 | > 88 | > 51.1 µM | 70.9 | 97.9 | > 70.8 µM | > 100 µM | > 84.6 µM | 72.4 | > 100 |  |  |
| COC(=O)[C@@H]1CO[C@H](C(C)(C)C)N1C(=O)N1C=CC(=O)C[C@H]1C | > 100 | > 100 | > 100 µM | > 100 | > 100 | > 100 µM | > 100 µM | > 100 µM | > 100 | > 100 |  |  |
| O=[N+]([O-])c1cccc2nc3ccccc3c(NCCCCCNc3c4ccccc4nc4cccc([N+](=O)[O-])c34)c12 | 0.0973 | 0.512 | 0.13 µM and 0.0322 µM | 0.348 | 0.935 | 1.25 µM and 1.14 µM | 0.26 µM and 1.79 µM | 0.353 µM and 1.25 µM | 0.111 | 0.598 | 0.08 | 0.0346 |
| CC1=NN(c2nc(N)nc(C(C)Cl)n2)C(C)(C)C1 (centres undefined) | > 100 | > 100 | > 100 µM | > 100 |  | > 100 µM | > 100 µM | > 100 µM | > 100 | > 100 |  |  |
| Cc1c(C)c(S(=O)(=O)N(CCCCN)OCCCN)c(C)c2c1OC(C)(C)CC2 | 80.6 | 36.1 | > 100 µM | 42 | 34.7 | 33.8 µM | 37.8 µM | 31.9 µM |  | 23.3 |  |  |
| Clc1ccc(C=Nc2ccc(Oc3ccc(Cl)cc3)c(Cl)c2)cc1 | 41 | 51.4 | 36.5 µM | > 100 | > 100 | 50.2 µM | > 100 µM | 70.2 µM |  | 69.8 |  |  |

From PubChem BioAssay (NCI)
